Experimental data taken from patent publication US7101878B1 (Agouron Pharmaceuticals, Inc., priority 1998, dated 2006).
pIC50: −log10 of the molar value. Like-named read-outs stand apart in the source and are kept apart here.

Target: T1, human GnRH receptor (Homo sapiens, UniProt P30968)
T1 construct: expressed in transfected cells; host or cells: HEK 293 (hGnRH-R/293, from Dr. Stuart Sealfon)
T1 sequence (P30968 1-328): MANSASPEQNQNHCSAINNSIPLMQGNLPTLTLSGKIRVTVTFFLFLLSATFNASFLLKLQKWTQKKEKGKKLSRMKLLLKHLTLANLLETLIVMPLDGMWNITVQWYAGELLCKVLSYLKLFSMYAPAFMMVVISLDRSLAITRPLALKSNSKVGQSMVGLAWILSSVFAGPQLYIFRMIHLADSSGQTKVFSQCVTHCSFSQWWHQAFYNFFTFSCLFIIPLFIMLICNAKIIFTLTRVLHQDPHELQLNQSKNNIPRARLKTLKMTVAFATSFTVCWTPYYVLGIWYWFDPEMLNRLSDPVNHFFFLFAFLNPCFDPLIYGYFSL
Assay: Radioligand binding, 125I-GnRH-A displacement, membranes of HEK 293 cells with human GnRH receptor
Conditions: for remaining activity at 1 µM: 1 uM compound, read-out: S%R 1 uM hGnRHR; for remaining activity at 10 µM: read-out: S%R 10 uM hGnRHR; for pIC50: read-out: hGnRH IC50
Procedure, shortened: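 Bound tracer was separated by filtration through polyethyleneimine-soaked GF/C filters and counted by liquid scintillation. IC50 from curve fitting; other species were tested under the same conditions.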

[1] = 1 uM, read-out: % Inhib. @ 1 uM hGnRH
[2] = 1 h, repeat of % Inhib. at 1 uM, read-out: Repeats @ 1 uM hGnRH
[3] = 1 h, substrate remaining, closer to zero = closer to 100% inhibition
[4] = 1 h, substrate remaining, 10 uM compound, closer to zero = closer to 100% inhibition

Structure (SMILES) | inhibition at 1 µM [1] [%] | inhibition at 1 µM [2] [%] | further results
CCN(CCNC(=O)c1ccc(Cc2cc3c(cc2C)C(C)(C)CCC3(C)C)o1)c1cccc(C)c1 | 2 | 21 | –
Cc1cc2c(cc1Cc1ccc(C(=O)NC(C#N)c3ccccc3)o1)C(C)(C)CCC2(C)C (centres unmarked) [Compound 452] | – | – | remaining activity at 1 µM [3]: 55%
Cc1cc2c(cc1Cc1ccc(C(=O)Nc3ncccc3O)o1)C(C)(C)CCC2(C)C [Compound 369] | – | – | remaining activity at 10 µM [4]: 11%
COc1cc(CNC(=O)c2ccc(Cc3cc4c(cc3C)C(C)(C)CCC4(C)C)o2)cc(OC)c1OC [drawing 995] | 60 | 62 | –
Cc1cc2c(cc1Cc1ccc(C(=O)N3CCCCC3c3ccccc3)o1)C(C)(C)CCC2(C)C (centres unmarked) | -19 | -22 | –
Cc1cc2c(cc1Cc1ccc(C(=O)NCc3cccc(CNc4ncnc5c(C)csc45)c3)o1)C(C)(C)CCC2(C)C [Compound 149] | – | – | pIC50: 6.44
COc1cccc(OC)c1NC(=O)c1ccc(Cc2cc3c(cc2C)C(C)(C)CCC3(C)C)o1 [Compound 389] | – | – | remaining activity at 10 µM (1 h): 3%
CCOC(=O)CN(Cc1ccccn1)C(=O)c1ccc(Cc2cc3c(cc2C)C(C)(C)CCC3(C)C)o1 [Compound 216] | – | – | pIC50: 5.36
Cc1cc2c(cc1Cc1ccc(C(=O)NCc3cccc(CNc4ncc(F)c(N)n4)c3)o1)C(C)(C)CCC2(C)C [Compound 157] | – | – | pIC50: 6.21
Cc1cc2c(cc1Cc1ccc(C(=O)N3CCN(c4ccc(Cl)cc4)CC3)o1)C(C)(C)CCC2(C)C | -11 | -17 | –
Cc1cc2c(cc1Cc1ccc(C(=O)NC3CCc4ccccc43)o1)C(C)(C)CCC2(C)C (centres unmarked) [drawing 1129] | 38 | 45 | –
Cc1cc2c(cc1Cc1ccc(C(=O)NC(C)C(O)c3ccccc3)o1)C(C)(C)CCC2(C)C (centres unmarked) | 12 | 14 | –
Cc1cc2c(cc1Cc1ccc(C(=O)NC(C)(C)Cc3ccccc3)o1)C(C)(C)CCC2(C)C | 38 | 39 | –
Cc1cc2c(cc1Cc1ccc(C(=O)NC[C@H]3CC[C@H](CNc4ccnc(NC[C@H]5CCCO5)n4)CC3)o1)C(C)(C)CCC2(C)C [Compound 178] | – | – | pIC50: 6.73
Cc1cc2c(cc1Cc1ccc(C(=O)NCCN3CCCCC3)o1)C(C)(C)CCC2(C)C [drawing 982] | 15 | 15 | –
Cc1cc2c(cc1Cc1ccc(C(=O)NCCCCNc3nccc(NCC4CCCO4)n3)o1)C(C)(C)CCC2(C)C (centres unmarked) [drawing 1047] | 27 | 38 | –
Cc1cc2c(cc1Cc1ccc(C(=O)NCCCCCC(=O)O)o1)C(C)(C)CCC2(C)C | -12 | -9 | –
Cc1cc2c(cc1Cc1ccc(C(=O)NCC(O)c3ccccc3)o1)C(C)(C)CCC2(C)C (centres unmarked) [Compound 444] | – | – | remaining activity at 1 µM [3]: 32%
Cc1cc2c(cc1Cc1ccc(C(=O)NCC3CCN(C(=N)N)CC3)o1)C(C)(C)CCC2(C)C [drawing 1063] | 26 | 87 | –
Cc1cc2c(cc1Cc1ccc(C(=O)NC(C)c3ccccc3)o1)C(C)(C)CCC2(C)C (centres unmarked) [Compound 428] | – | – | remaining activity at 1 µM [3]: 46%
Cc1cc2c(cc1Cc1ccc(C(=O)NCc3ccco3)o1)C(C)(C)CCC2(C)C [Compound 407] | – | – | remaining activity at 1 µM [3]: 20%

Structure (SMILES) | inhibition at 1 µM [1] [%] | inhibition at 1 µM [2] [%] | further results
Cc1cc2c(cc1Cc1ccc(C(=O)Nc3ccc(CO)cc3)o1)C(C)(C)CCC2(C)C [Compound 339] | – | – | remaining activity at 10 µM [4]: 17%
Cc1cc2c(cc1Cc1ccc(C(=O)NCCCCNc3nccc(NCC4CCCO4)n3)o1)C(C)(C)CCC2(C)C (centres unmarked) [Compound 69] | – | – | pIC50: 5.85
Cc1cc2c(cc1Cc1ccc(C(=O)N(Cc3ccccn3)CC(C)C)o1)C(C)(C)CCC2(C)C [Compound 215] | – | – | pIC50: 5.11
COc1ccccc1CNC(=O)c1ccc(Cc2cc3c(cc2C)C(C)(C)CCC3(C)C)o1 [Compound 404] | – | – | remaining activity at 1 µM [3]: 13%
Cc1cc2c(cc1Cc1ccc(C(=O)NCCc3ccc(S(N)(=O)=O)cc3)o1)C(C)(C)CCC2(C)C [drawing 989] | 38 | 41 | –
Cc1cc2c(cc1Cc1ccc(C(=O)NC3CCCCC3Cc3nccc(NCC4CCCO4)n3)o1)C(C)(C)CCC2(C)C (centres unmarked) | -21 | -5 | –
Cc1cc2c(cc1Cc1ccc(C(=O)NC(C)CCc3ccccc3)o1)C(C)(C)CCC2(C)C (centres unmarked) [drawing 1130] | 52 | 52 | –
Cc1cc2c(cc1Cc1ccc(C(=O)NC(C#N)c3ccccc3)o1)C(C)(C)CCC2(C)C (centres unmarked) [drawing 1233] | 43 | 48 | –
Cc1cc2c(cc1Cc1ccc(C(=O)NCCc3ccccn3)o1)C(C)(C)CCC2(C)C [drawing 985] | 50 | 62 | –
Cc1cc2c(cc1Cc1ccc(C(=O)NC3O[C@H](COC(=O)C(C)(C)C)[C@H](OC(=O)C(C)(C)C)[C@H](NC(=O)C(C)(C)C)[C@H]3OC(=O)C(C)(C)C)o1)C(C)(C)CCC2(C)C (some centres unmarked) [Compound 175] | – | – | pIC50: < 5.00
Cc1cc2c(cc1Cc1ccc(C(=O)NCc3ccc(F)c(F)c3)o1)C(C)(C)CCC2(C)C [drawing 1030] | 55 | 60 | –
COc1cccc(CNC(=O)c2ccc(Cc3cc4c(cc3C)C(C)(C)CCC4(C)C)o2)c1OC [Compound 410] | – | – | remaining activity at 1 µM [3]: 21%
Cc1cc2c(cc1Cc1ccc(C(=O)NCCc3cccc(F)c3)o1)C(C)(C)CCC2(C)C [Compound 437] | – | – | remaining activity at 1 µM [3]: 40%
COc1cc(OC)nc(NCC2CCC(CNC(=O)c3ccc(Cc4cc5c(cc4C)C(C)(C)CCC5(C)C)o3)CC2)n1 (centres unmarked) [Compound 71] | – | – | pIC50: 5.70
Cc1cc2c(cc1Cc1ccc(C(=O)Nc3ccc(OCc4ccccc4)c(OCc4ccccc4)c3)o1)C(C)(C)CCC2(C)C [Compound 62] | – | – | pIC50: < 5.00
Cc1cc2c(cc1Cc1ccc(C(=O)NCc3cc4c5ccccc5n(Cc5cc(Cl)ccc5Cl)c4cn3)o1)C(C)(C)CCC2(C)C | -34 | -38 | –
Cc1cc2c(cc1Cc1ccc(C(=O)NCCc3ccc(-c4ccccc4)cc3)o1)C(C)(C)CCC2(C)C | -17 | -31 | –
COc1cccc(NC(=O)c2ccc(Cc3cc4c(cc3C)C(C)(C)CCC4(C)C)o2)c1 [Compound 337] | – | – | remaining activity at 10 µM [4]: 6%
Cc1cc2c(cc1Cc1ccc(C(=O)NCCc3cccc(Oc4ccccc4)c3)o1)C(C)(C)CCC2(C)C [drawing 1039] | -2 | 4 | –
Cc1cc2c(cc1Cc1ccc(C(=O)Nc3ccccc3CO)o1)C(C)(C)CCC2(C)C [Compound 333] | – | – | remaining activity at 10 µM [4]: 28%
Cc1cc2c(cc1Cc1ccc(C(=O)Nc3ccc4c(=O)[nH][nH]c(=O)c4c3)o1)C(C)(C)CCC2(C)C [Compound 385] | – | – | S%R 10 uM hGnRHR (substrate remaining, 10 uM compound, closer to zero = closer to 100% inhibition): 41%

Continued, in another order:

inhibition at 1 µM [1] [%] | inhibition at 1 µM [2] [%] | Structure (SMILES) | further results
49 | 52 | Cc1cc2c(cc1Cc1ccc(C(=O)NCc3ccc(Br)cc3)o1)C(C)(C)CCC2(C)C [drawing 1234] | –
25 | 28 | Cc1cc2c(cc1Cc1ccc(C(=O)NCC(O)c3ccc(O)cc3)o1)C(C)(C)CCC2(C)C (centres unmarked) | –
2 | 4 | Cc1cc2c(cc1Cc1ccc(C(=O)NC(C#N)c3ccc(F)cc3)o1)C(C)(C)CCC2(C)C (centres unmarked) | –
-2 | 9 | Cc1cc2c(cc1Cc1ccc(C(=O)N(C)CC(O)c3cccc(O)c3)o1)C(C)(C)CCC2(C)C (centres unmarked) | –
45 | 45 | Cc1cc2c(cc1Cc1ccc(C(=O)NCCc3ccc(F)cc3)o1)C(C)(C)CCC2(C)C [drawing 1198] | –
21 | 23 | COc1ccc(C(=O)CNC(=O)c2ccc(Cc3cc4c(cc3C)C(C)(C)CCC4(C)C)o2)cc1 [drawing 1056] | –
55 | 63 | Cc1cc2c(cc1Cc1ccc(C(=O)NCCc3ccccc3Cl)o1)C(C)(C)CCC2(C)C [drawing 1104] | –
77 | 84 | Cc1cc2c(cc1Cc1ccc(C(=O)NCc3ccccc3Cl)o1)C(C)(C)CCC2(C)C [drawing 1103] | –
1 | 1 | Cc1cc2c(cc1Cc1ccc(C(=O)NCCO)o1)C(C)(C)CCC2(C)C [drawing 1178] | –
78 | 85 | Cc1cc2c(cc1Cc1ccc(C(=O)NCc3ccc(N(C)C)cc3)o1)C(C)(C)CCC2(C)C [drawing 1220] | –
20 | 28 | Cc1cc2c(cc1Cc1ccc(C(=O)NC(C)c3ccc(Cl)cc3)o1)C(C)(C)CCC2(C)C (centres unmarked) | –
41 | 44 | Cc1cc2c(cc1Cc1ccc(C(=O)NC(C)c3ccc([N+](=O)[O-])cc3)o1)C(C)(C)CCC2(C)C (centres unmarked) [drawing 1238] | –
48 | 52 | Cc1ccc(CCNC(=O)c2ccc(Cc3cc4c(cc3C)C(C)(C)CCC4(C)C)o2)cc1 [drawing 1193] | –
93 | 95 | Cc1cccc(CNC(=O)c2ccc(Cc3cc4c(cc3C)C(C)(C)CCC4(C)C)o2)c1 [drawing 1174] | –
82 | 85 | Cc1cc2c(cc1Cc1ccc(C(=O)NCc3ccccc3)o1)C(C)(C)CCC2(C)C [drawing 1070] | –
